Experimental data taken from US20200306377A1, “METHODS FOR ENHANCING 5-AMINOLEVULINIC ACID-BASED MEDICAL IMAGING AND PHOTOTHERAPY” (priority 2017, published 2020).

Tests used:
Format in all cases: cell-based
[1] = test system: SKBR3 human breast cancer cells; assay: Resistance to photo-bleaching after uptake and irradiation; conditions: after uptake, 1 minute of irradiation
Method: (§1) A 5-ALA solution in deionized H2O at 100 mM was prepared and added when required at a final concentration of 200 uM (6 uL per well). After the predetermined incubation time, cells are fixed using the following protocol. The medium was removed and the cells gently rinsed with PBS buffer (2 mL per well), two mL fixation medium (3.7% formaldehyde in PBS) was added followed by incubation at room temperature (RT) for 15 min. The fixation medium was removed and fresh PBS was added to gently rinse the cells. The coverslips were removed from the wells and mounted on glass slides. […] Within each study, all microscopic settings (filter, light intensity, exposure time, and magnification) were identical. Microscopic images of the cells after treatment with various types of QDs and/or 5-ALA are shown in FIGS. 2A-2L through FIGS. 4A-4K.

[2] = test system: SKBR3 human breast cancer cells; assay: Comparison of 5-ALA intracellular uptake, fluorescence microscopy; conditions: incubation 3, 5, 16 h, QDs about 50 ug/mL, free 5-ALA 200 uM
Method: as §1, with “SKBR3 human breast cancer cells are cultivated in 6 well plates supplied with glass coverslips using McCoy's 5a medium from ATCC (3 mL per well). […]” for “A 5-ALA”, “identical.” for “identical. Microscopic images of the cells after treatment with various types of QDs and/or 5-ALA are shown in FIGS. 2A-2L through FIGS. 4A-4K.”

[3] = test system: normal human fibroblast cells (HFF); assay: Labeling of normal fibroblast cells; conditions: 16 hrs, QD 50 μg/mL, free 5-ALA 0.2 mM

NCC(=O)CCC(=O)O [free 5-ALA, 5-Aminolevulinic acid]
photo-bleaching [1]: rapid photo-bleaching and signal disappearance
emission at 630 nm [2]: weaker emission
labeling of normal cells [3]: lack of labeling
